{"source": "patent US20240300943A1", "about": "“NOVEL SALTS OF HETEROCYCLIC COMPOUND AS PROTEIN KINASE INHIBITOR AND USES THEREOF” (HK INNO.N CORPORATION, priority 2021, published 2024)", "format_in_all_cases": "physicochemical", "key": {"[1]": {"assay": "Hygroscopicity evaluation", "details": "for Individual related material: in %", "from_the_text": "Samples were placed in a glass desiccator in which relative humidity was adjusted to 33%, 53%, 75%, and 93%, and then stored for two and four weeks to be evaluated."}, "[2]": {"assay": "Photostability evaluation", "from_the_text": "Samples were packaged in LPDE bag, and stored under visible (1.2M Lux-h), UV (200 W-h/m2) and UV+visible conditions, respectively, and then evaluated."}, "[3]": {"assay": "Measurement of water solubility", "details": "saturated solution shaken at room temperature for 24 hours", "protocol": "A liquid phase was taken out of the solution and filtered using a 0.22 μm PVDF filter. The filtered liquid phase was diluted 10-fold for LC analysis.\nLC analysis was performed by the following method."}, "[4]": {"assay": "Physical stability evaluation under stress conditions", "protocol": "In order to evaluate physical stability, samples were packaged in the form of ((LPDE+N2)+silica gel 1 g+LDPE)+Al-Bag, and stored under stress conditions (60° C.±2° C./80% RH±5%) for 2/4 weeks before evaluation.\nIn table 2, initial is a result measured after preparation of salts, and S2W and S4W are results measured after two and four weeks while being exposed to stress conditions, respectively."}}, "data": [{"smiles": "C[C@@H]1CN(C(=O)CC#N)CC=C1c1cc(NC(=O)C2CC2)nc2[nH]ccc12", "note": "[Example 1, (S)—N-(4-(1-(2-cyanoacetyl)-3-methyl-1,2,3,6-tetrahydropyridin-4-yl)-1H-pyrrolo[2,3-b]pyridin-6-yl)cyclopropanecarboxamide]", "values": [{"measurement": "Total related material", "setting": "[1]; Initial", "value": 0.66, "unit": "%"}, {"measurement": "Water", "setting": "[1]; Initial", "value": 3.33, "unit": "%"}, {"measurement": "Individual related material", "setting": "[1]; Initial", "value": 0.13}, {"measurement": "Total related material", "setting": "[1]; relative humidity 33%, 2 W", "value": 0.68, "unit": "%"}, {"measurement": "Water", "setting": "[1]; relative humidity 33%, 2 W", "value": 5.22, "unit": "%"}, {"measurement": "Individual related material", "setting": "[1]; relative humidity 33%, 2 W", "value": 0.12}, {"measurement": "Total related material", "setting": "[1]; relative humidity 33%, 4 W", "value": 0.62, "unit": "%"}, {"measurement": "Water", "setting": "[1]; relative humidity 33%, 4 W", "value": 5.32, "unit": "%"}, {"measurement": "Individual related material", "setting": "[1]; relative humidity 33%, 4 W", "value": 0.11}, {"measurement": "Total related material", "setting": "[1]; relative humidity 53%, 2 W", "value": 0.78, "unit": "%"}, {"measurement": "Water", "setting": "[1]; relative humidity 53%, 2 W", "value": 5.21, "unit": "%"}, {"measurement": "Individual related material", "setting": "[1]; relative humidity 53%, 2 W", "value": 0.12}, {"measurement": "Total related material", "setting": "[1]; relative humidity 53%, 4 W", "value": 0.78, "unit": "%"}, {"measurement": "Water", "setting": "[1]; relative humidity 53%, 4 W", "value": 5.38, "unit": "%"}, {"measurement": "Individual related material", "setting": "[1]; relative humidity 53%, 4 W", "value": 0.12}, {"measurement": "Total related material", "setting": "[1]; relative humidity 75%, 2 W", "value": 0.69, "unit": "%"}, {"measurement": "Water", "setting": "[1]; relative humidity 75%, 2 W", "value": 5.24, "unit": "%"}, {"measurement": "Individual related material", "setting": "[1]; relative humidity 75%, 2 W", "value": 0.12}, {"measurement": "Total related material", "setting": "[1]; relative humidity 75%, 4 W", "value": 0.68, "unit": "%"}, {"measurement": "Water", "setting": "[1]; relative humidity 75%, 4 W", "value": 5.41, "unit": "%"}, {"measurement": "Individual related material", "setting": "[1]; relative humidity 75%, 4 W", "value": 0.11}, {"measurement": "Total related material", "setting": "[1]; relative humidity 93%, 2 W", "value": 0.89, "unit": "%"}, {"measurement": "Water", "setting": "[1]; relative humidity 93%, 2 W", "value": 5.37, "unit": "%"}, {"measurement": "Individual related material", "setting": "[1]; relative humidity 93%, 2 W", "value": 0.12}, {"measurement": "Total related material", "setting": "[1]; relative humidity 93%, 4 W", "value": 0.94, "unit": "%"}, {"measurement": "Water", "setting": "[1]; relative humidity 93%, 4 W", "value": 5.43, "unit": "%"}, {"measurement": "Individual related material", "setting": "[1]; relative humidity 93%, 4 W", "value": 0.13}, {"measurement": "Individual related material", "setting": "[2]; Initial", "value": 0.13, "unit": "%"}, {"measurement": "Total related material", "setting": "[2]; Initial", "value": 0.66, "unit": "%"}, {"measurement": "Individual related material", "setting": "[2]; Solid, Control", "value": 0.11, "unit": "%"}, {"measurement": "Total related material", "setting": "[2]; Solid, Control", "value": 0.55, "unit": "%"}, {"measurement": "Individual related material", "setting": "[2]; Solid, UV (200 W-h/m2)", "value": 0.36, "unit": "%"}, {"measurement": "Total related material", "setting": "[2]; Solid, UV (200 W-h/m2)", "value": 2.31, "unit": "%"}, {"measurement": "Individual related material", "setting": "[2]; Solid, UV + Vis", "value": 0.81, "unit": "%"}, {"measurement": "Total related material", "setting": "[2]; Solid, UV + Vis", "value": 4.74, "unit": "%"}, {"measurement": "Individual related material", "setting": "[2]; Solid, UV + Vis Control", "value": 0.12, "unit": "%"}, {"measurement": "Total related material", "setting": "[2]; Solid, UV + Vis Control", "value": 0.65, "unit": "%"}, {"measurement": "Individual related material", "setting": "[2]; Solid, Vis (1.2M Lux-h)", "value": 0.66, "unit": "%"}, {"measurement": "Total related material", "setting": "[2]; Solid, Vis (1.2M Lux-h)", "value": 3.83, "unit": "%"}, {"measurement": "Water solubility", "setting": "[3]", "value": 5900, "unit": "µg/mL"}, {"measurement": "C.I quantitative", "setting": "[4]; Initial", "value": 9.2, "unit": "%"}, {"measurement": "Content (anhydride, as anhydride)", "setting": "[4]; Initial", "value": 97.9, "unit": "%"}, {"measurement": "Moisture", "setting": "[4]; Initial", "value": 3.33, "unit": "%"}, {"measurement": "Purity: Individual related material", "setting": "[4]; Initial", "value": 0.13, "unit": "%"}, {"measurement": "Purity: Total related material", "setting": "[4]; Initial", "value": 0.66, "unit": "%"}, {"measurement": "C.I quantitative", "setting": "[4]; S2W: 2 weeks at 60° C./80% RH", "value": 9.1, "unit": "%"}, {"measurement": "Content (anhydride, as anhydride)", "setting": "[4]; S2W: 2 weeks at 60° C./80% RH", "value": 98.0, "unit": "%"}, {"measurement": "Purity: Individual related material", "setting": "[4]; S2W: 2 weeks at 60° C./80% RH", "value": 0.13, "unit": "%"}, {"measurement": "Purity: Total related material", "setting": "[4]; S2W: 2 weeks at 60° C./80% RH", "value": 1.08, "unit": "%"}, {"measurement": "C.I quantitative", "setting": "[4]; S4W: 4 weeks at 60° C./80% RH", "value": 9.1, "unit": "%"}, {"measurement": "Content (anhydride, as anhydride)", "setting": "[4]; S4W: 4 weeks at 60° C./80% RH", "value": 98.6, "unit": "%"}, {"measurement": "Purity: Individual related material", "setting": "[4]; S4W: 4 weeks at 60° C./80% RH", "value": 0.34, "unit": "%"}, {"measurement": "Purity: Total related material", "setting": "[4]; S4W: 4 weeks at 60° C./80% RH", "value": 1.28, "unit": "%"}]}]}
